Source: PubChem BioAssay AID256 (DTP/NCI, 2004)
“And” between values parts separate entries of the source, which are not always exact repeats. Identical values can stand only once. Inconclusive results and toxic doses are left out.

Tested on: CD2F1 mice, L1210 leukemia ip, survival T/C
Experiment: NCI In Vivo Anticancer Drug Screen. Data for tumor model L1210 Leukemia (intraperitoneal) in CD2F1 (CDF1) mice
Conditions: higher = longer survival
Method in brief: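 Activity against a transplanted murine tumor was judged by comparing the compound group with a vehicle group. The outcome in the treated animals was divided by that in the controls.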

[1] = endpoint: mean survival time, dose: 200.0 mg/kg/injection, schedule: Q04DX003 (ip), vehicle: saline with Tween-80
[2] = endpoint: mean survival time, dose: 100.0 mg/kg/injection, schedule: Q04DX003 (ip), vehicle: saline with Tween-80
[3] = endpoint: mean survival time, dose: 400.0 mg/kg/injection, schedule: Q04DX003 (ip), vehicle: saline with Tween-80
[4] = endpoint: mean survival time, dose: 100.0 mg/kg/injection, schedule: Q01DX009 (ip), vehicle: saline with Tween-80
[5] = endpoint: mean survival time, dose: 200.0 mg/kg/injection, schedule: Q01DX009 (ip), vehicle: saline with Tween-80
[6] = endpoint: mean survival time, dose: 400.0 mg/kg/injection, schedule: Q01DX009 (ip), vehicle: saline with Tween-80
[7] = endpoint: mean survival time, dose: 100.0 mg/kg/injection, schedule: Q04DX002 (ip), vehicle: saline
[8] = endpoint: mean survival time, dose: 100.0 mg/kg/injection, schedule: Q01DX001 (ip), vehicle: saline with Tween-80
[9] = endpoint: mean survival time, dose: 200.0 mg/kg/injection, schedule: Q01DX001 (ip), vehicle: saline with Tween-80
[10] = endpoint: mean survival time, dose: 400.0 mg/kg/injection, schedule: Q01DX001 (ip), vehicle: saline with Tween-80
[11] = endpoint: mean survival time, dose: 100.0 mg/kg/injection, schedule: Q01DX001 (ip), vehicle: saline
[12] = endpoint: mean survival time, dose: 200.0 mg/kg/injection, schedule: Q01DX001 (ip), vehicle: saline

## CCOC(=O)c1[nH]c2cccc3c2c1CC(Br)C3=O (stereo unspecified)
endpoint: median survival time, dose: 12.5 mg/kg/injection, schedule: Q01DX009 (ip), vehicle: saline with Tween-80
  T/C: 120 % of control
endpoint: median survival time, dose: 25.0 mg/kg/injection, schedule: Q01DX009 (ip), vehicle: saline with Tween-80
  T/C: 109 % of control
endpoint: median survival time, dose: 50.0 mg/kg/injection, schedule: Q01DX009 (ip), vehicle: saline with Tween-80
  T/C: 109 % of control
endpoint: median survival time, dose: 100.0 mg/kg/injection, schedule: Q01DX009 (ip), vehicle: saline with Tween-80
  T/C: 107 % of control

## CC1C=CC(C(=O)Nc2ccc(Cl)c(Cl)c2)N1C (stereo unspecified)
[1]
  T/C: 92 % of control

## O=C(/C=C/c1ccccn1)c1ccccc1
endpoint: mean survival time, dose: 100.0 mg/kg/injection, schedule: Q04DX002 (ip), vehicle: Klucel (hydroxypropylcellulose) (HPC)
  T/C: 97 % of control
endpoint: mean survival time, dose: 200.0 mg/kg/injection, schedule: Q04DX002 (ip), vehicle: Klucel (hydroxypropylcellulose) (HPC)
  T/C: 104 % of control

## OCC(Cl)(Cl)Cl
[2]
  T/C: 93 % of control
[1]
  T/C: 97 % of control
[3]
  T/C: 101 % of control

## Cc1ccc([I+]c2ccc(C)cc2)cc1
endpoint: mean survival time, dose: 0.25 mg/kg/injection, schedule: Q01DX009 (ip), vehicle: Klucel (hydroxypropylcellulose) (HPC)
  T/C: 98 % of control
endpoint: mean survival time, dose: 0.5 mg/kg/injection, schedule: Q01DX009 (ip), vehicle: Klucel (hydroxypropylcellulose) (HPC)
  T/C: 98 % of control
endpoint: mean survival time, dose: 1.0 mg/kg/injection, schedule: Q01DX009 (ip), vehicle: Klucel (hydroxypropylcellulose) (HPC)
  T/C: 105 % of control

## NC(CC(=O)CCl)C(=O)O (stereo unspecified)
endpoint: mean survival time, dose: 6.25 mg/kg/injection, schedule: Q04DX003 (ip), vehicle: saline
  T/C: 120 % of control
endpoint: mean survival time, dose: 37.5 mg/kg/injection, schedule: Q04DX003 (ip), vehicle: saline
  T/C: 109 % of control
endpoint: median survival time, dose: 10.0 mg/kg/injection, schedule: Q01DX001 (ip), vehicle: saline
  T/C: 121 % of control
endpoint: median survival time, dose: 20.0 mg/kg/injection, schedule: Q01DX001 (ip), vehicle: saline
  T/C: 121 % of control
endpoint: median survival time, dose: 30.0 mg/kg/injection, schedule: Q01DX009 (ip), vehicle: saline
  T/C: 122 % of control
endpoint: median survival time, dose: 40.0 mg/kg/injection, schedule: Q01DX001 (ip), vehicle: saline
  T/C: 122 % of control
endpoint: median survival time, dose: 60.0 mg/kg/injection, schedule: Q01DX009 (ip), vehicle: saline
  T/C: 35 % of control

## COC1CCC(/C(C#N)=C/C2CCC(N(C)C)CC2)CC1 (stereo unspecified)
[4]
  T/C: 89 % of control
[5]
  T/C: 100 % of control
[6]
  T/C: 96 % of control

## CCOC(=O)CCOc1ccccc1N(CCCl)CCCl
[4]
  T/C: 87 % of control

## CC/C(C)=N\O
endpoint: mean survival time, dose: 100.0 mg/kg/injection, schedule: Q01DX009 (ip), vehicle: saline
  T/C: 97 % of control
endpoint: mean survival time, dose: 200.0 mg/kg/injection, schedule: Q01DX009 (ip), vehicle: saline
  T/C: 111 % of control
endpoint: mean survival time, dose: 400.0 mg/kg/injection, schedule: Q01DX009 (ip), vehicle: saline
  T/C: 97 % of control

## CC(C)=NNS(=O)(=O)c1ccccc1
endpoint: mean survival time, dose: 12.5 mg/kg/injection, schedule: Q01DX005 (ip), vehicle: Klucel (hydroxypropylcellulose) (HPC)
  T/C: 88 % of control
endpoint: mean survival time, dose: 25.0 mg/kg/injection, schedule: Q01DX005 (ip), vehicle: Klucel (hydroxypropylcellulose) (HPC)
  T/C: 96 % of control
endpoint: mean survival time, dose: 50.0 mg/kg/injection, schedule: Q01DX005 (ip), vehicle: Klucel (hydroxypropylcellulose) (HPC)
  T/C: 96 % of control
endpoint: mean survival time, dose: 100.0 mg/kg/injection, schedule: Q01DX005 (ip), vehicle: Klucel (hydroxypropylcellulose) (HPC)
  T/C: 93 % of control

## O=C1SCCC1NP(=O)(Oc1ccccc1)Oc1ccccc1 (stereo unspecified)
[4]
  T/C: 93 % of control
[5]
  T/C: 103 % of control
[6]
  T/C: 93 % of control

## O=C1CCC(=O)N1C1C=CC=CC=C1
endpoint: mean survival time, dose: 50.0 mg/kg/injection, schedule: Q04DX003 (ip), vehicle: acetone
  T/C: 98 % of control
endpoint: mean survival time, dose: 100.0 mg/kg/injection, schedule: Q04DX003 (ip), vehicle: acetone
  T/C: 107 % of control

## CC(=O)Nc1cc(N)cc(-c2ccccc2)c1
endpoint: mean survival time, dose: 50.0 mg/kg/injection, schedule: Q04DX002 (ip), vehicle: saline with Tween-80
  T/C: 96 % of control and 104 % of control
[2]
  T/C: 94 % of control and 97 % of control
[1]
  T/C: 90 % of control and 94 % of control
[3]
  T/C: 94 % of control and 100 % of control

## COc1cc2c(cc1OC)C13CCN4CC5=CCOC(CC(=O)O)C(C5CC41)C3N2 (stereo unspecified)
endpoint: mean survival time, dose: 75.0 mg/kg/injection, schedule: Q01DX001 (ip), vehicle: other
  T/C: 98 % of control
endpoint: mean survival time, dose: 75.0 mg/kg/injection, schedule: Q01DX001 (ip), vehicle: saline
  T/C: 101 % of control
endpoint: mean survival time, dose: 150.0 mg/kg/injection, schedule: Q01DX001 (ip), vehicle: saline
  T/C: 97 % of control

## C#CCN(C)CCO
endpoint: mean survival time, dose: 100.0 mg/kg/injection, schedule: Q01DX009 (ip), vehicle: acetone
  T/C: 103 % of control
endpoint: mean survival time, dose: 200.0 mg/kg/injection, schedule: Q01DX009 (ip), vehicle: acetone
  T/C: 97 % of control
endpoint: mean survival time, dose: 400.0 mg/kg/injection, schedule: Q01DX009 (ip), vehicle: acetone
  T/C: 100 % of control

## OC1CCCCO1 (stereo unspecified)
[2]
  T/C: 100 % of control
[1]
  T/C: 103 % of control
[3]
  T/C: 103 % of control

## COc1ccc(C=Nc2ccc(C)cc2)cc1
[4]
  T/C: 108 % of control
[2]
  T/C: 103 % of control
[5]
  T/C: 98 % of control
[1]
  T/C: 115 % of control
[6]
  T/C: 104 % of control
[3]
  T/C: 116 % of control

## C(CCSC1=NCCN1)CSC1=NCCN1
endpoint: mean survival time, dose: 25.0 mg/kg/injection, schedule: Q04DX002 (ip), vehicle: saline
  T/C: 96 % of control
endpoint: mean survival time, dose: 50.0 mg/kg/injection, schedule: Q04DX002 (ip), vehicle: saline
  T/C: 107 % of control
[7]
  T/C: 90 % of control

## O=C1CCC(OC(=O)c2ccccc2)CCN1 (stereo unspecified)
[4]
  T/C: 87 % of control
[5]
  T/C: 98 % of control
[6]
  T/C: 90 % of control

## COc1cc2c3c(c1)/C(=N\NC(N)=S)CCN3CCC2
[8]
  T/C: 93 % of control
[9]
  T/C: 105 % of control
[10]
  T/C: 93 % of control

## C=C1CC2C=CC1C2 (stereo unspecified) (tested in a mixture with another compound)
endpoint: mean survival time, dose: 80.5 mg/kg/injection, schedule: Q01DX009 (ip), vehicle: saline with Tween-80
  T/C: 90 % of control

## NC(N)=NCC(=O)O
[2]
  T/C: 94 % of control
[1]
  T/C: 102 % of control
[3]
  T/C: 98 % of control

## CCN(C(=O)Nc1cccc(Cl)c1)c1ccccc1C
[4]
  T/C: 91 % of control
[5]
  T/C: 97 % of control
[6]
  T/C: 97 % of control

## CC1CCCC2(C)CCC(C(C)(C)O)CC12 (stereo unspecified)
[11]
  T/C: 103 % of control
[12]
  T/C: 100 % of control
endpoint: mean survival time, dose: 400.0 mg/kg/injection, schedule: Q01DX001 (ip), vehicle: saline
  T/C: 103 % of control

## CC#CCOCC(O)CCl (stereo unspecified)
endpoint: median survival time, dose: 50.0 mg/kg/injection, schedule: Q01DX005 (ip), vehicle: saline
  T/C: 97 % of control
endpoint: median survival time, dose: 50.0 mg/kg/injection, schedule: Q01DX005 (ip), vehicle: suspension in saline
  T/C: 104 % of control
endpoint: median survival time, dose: 100.0 mg/kg/injection, schedule: Q01DX005 (ip), vehicle: saline
  T/C: 94 % of control
endpoint: median survival time, dose: 100.0 mg/kg/injection, schedule: Q01DX005 (ip), vehicle: suspension in saline
  T/C: 101 % of control
endpoint: median survival time, dose: 200.0 mg/kg/injection, schedule: Q01DX005 (ip), vehicle: saline
  T/C: 97 % of control
endpoint: median survival time, dose: 200.0 mg/kg/injection, schedule: Q01DX005 (ip), vehicle: suspension in saline
  T/C: 96 % of control
endpoint: median survival time, dose: 400.0 mg/kg/injection, schedule: Q01DX005 (ip), vehicle: saline
  T/C: 117 % of control

## CS(=O)(=O)OCCCN(CCCOS(C)(=O)=O)c1ccc(C=Nc2ccc(-c3csc(COc4ccc(Cl)cc4Cl)n3)cc2)cc1
[8]
  T/C: 86 % of control
[4]
  T/C: 93 % of control
[9]
  T/C: 86 % of control
[10]
  T/C: 89 % of control

## CCS(=O)(=O)OCCCNCCCOS(=O)(=O)CC
endpoint: mean survival time, dose: 12.5 mg/kg/injection, schedule: Q01DX001 (ip), vehicle: saline
  T/C: 103 % of control
endpoint: mean survival time, dose: 25.0 mg/kg/injection, schedule: Q01DX001 (ip), vehicle: saline
  T/C: 105 % of control
[11]
  T/C: 160 % of control
[12]
  T/C: 186 % of control

## NC(CCSCc1ccc(N(CCCl)CCCl)cc1)C(=O)O (stereo unspecified)
endpoint: mean survival time, dose: 14.0 mg/kg/injection, schedule: Q01DX009 (ip), vehicle: carboxymethylcellulose (CMC)
  T/C: 152 % of control

## NS(=O)(=O)c1ccc(Cl)c2ccccc12
[8]
  T/C: 93 % of control
[9]
  T/C: 98 % of control

## NCCCN1CCN(CCCN)CC1
[7]
  T/C: 98 % of control
endpoint: mean survival time, dose: 200.0 mg/kg/injection, schedule: Q04DX002 (ip), vehicle: saline
  T/C: 91 % of control
endpoint: mean survival time, dose: 400.0 mg/kg/injection, schedule: Q04DX002 (ip), vehicle: saline
  T/C: 98 % of control

## CC(=O)NC(C)(NC(=O)CCl)C(=O)O (stereo unspecified)
endpoint: mean survival time, dose: 100.0 mg/kg/injection, schedule: Q04DX002 (ip), vehicle: saline with Tween-80
  T/C: 100 % of control
endpoint: mean survival time, dose: 200.0 mg/kg/injection, schedule: Q04DX002 (ip), vehicle: saline with Tween-80
  T/C: 96 % of control
endpoint: mean survival time, dose: 400.0 mg/kg/injection, schedule: Q04DX002 (ip), vehicle: saline with Tween-80
  T/C: 93 % of control

## COc1cccc(Cc2c[nH]c(=O)[nH]c2=O)c1
[2]
  T/C: 98 % of control
[1]
  T/C: 100 % of control
[3]
  T/C: 92 % of control
